In patent US20230348520A1, “COMPOUND COMPRISING BETA-NICOTINAMIDE MONONUCLEOTIDE OR PHARMACOLOGICALLY ACCEPTABLE SALT THEREOF, AND METHOD FOR EVALUATING QUALITY AND METHOD FOR ASSESSING ENZYMATIC REACTIVITY OF SAID COMPOUND” (ORIENTAL YEAST CO., LTD., priority 2020, published 2023):

How the values were obtained:
HEK293 cells [1] = experiment: Cytotoxicity rate from intra- and extracellular AST activities in culture cells (Test Example 5); type: cell-based; conditions: nonadherent HEK293 cells; 0.1 mM β-NMN; shake-cultured seven days without exchange of the medium; FIGS. 5A, 5B
[2] = biological target: R-LDH5 (lactate dehydrogenase (LDH) 5, SEQ ID NO: 1, derived from skeletal muscle) (Oryctolagus cuniculus, UniProt P13491, L277I/T249S); experiment: Evaluation of enzymatic reactivity with lactate dehydrogenase R-LDH5 (Test Examples 1 and 2); type: biochemical; conditions: 19 mM β-NMN in R1 reagent; R-LDH5 245 U/mL final; 37° C.; 340 nm; one unit = 0.1 mAbs change in absorbance per minute; average of three measurements
Description: The lactate dehydrogenase is preferably lactate dehydrogenase derived from mammalian skeletal muscle, and more preferably lactate dehydrogenase (LDH) 5 (hereinafter may be referred to as “R-LDHS”). The R-LDHS has an amino acid sequence as set forth in SEQ ID NO: 1, is composed of a tetramer of sub-units, and is derived from skeletal muscle. Other lactate dehydrogenases of any mammal can also be used, such as porcine lactate dehydrogenase (LDH) 1, human lactate dehydrogenase (LDH) 1, and human lactate dehydrogenase (LDH) 5. The LDH catalyzes dehydrogenation of lactic acid as a substrate, to convert the lactic acid to pyruvic acid. At this time, the β-NMN is converted to a reduced form of β-NMN (see FIG. 1).
In the present invention, the enzymatic reactivity refers to a value obtained through measurement using the following reagents and method.
(The purity of the β-NMN in a measurement sample is assumed to be 100%. Also, the β-NMN is dissolved in an 80 mM sodium carbonate solution in advance.)
The enzyme solution is prepared so that the LDH is to be 245 U/mL as a final concentration in a reaction liquid.
In the present invention, the activity unit (U) of the LDH is an activity unit measured by the human LDH measurement method according to IFCC when using NAD as a coenzyme.
An enzyme activity is measured using a 7180 type Hitachi automatic analyzer (obtained from Hitachi High-Tech Corporation). Measurement parameters are as follows.
Analysis method: Rate A Measurement wavelength (sub/main): 405 nm/340 nm Reaction duration: 10 minutes Photometric points: 20 to 24 Sample liquid (enzyme solution): 18 μL R1 reagent: 120 μL R2 reagent: 87 μL
18 μL of the enzyme solution and 120 μL of the R1 reagent are mixed. The resulting mixture is incubated at 37° C. for 4.5 minutes (photometric points 1 to 16), followed by addition of 87 μL of the R2 reagent, to initiate reaction (photometric point 17). From the absorbance of the measurement sample one to two minutes after initiation of the reaction (photometric points 20 to 24), the absorbance of water (blank) at the same photometric points is subtracted, to calculate a value of change in absorbance per minute (ΔmAbs/min). Regarding the activity unit (the unit of reactivity with the lactate dehydrogenase R-LDH5), 0.1 mAbs as the value of change in absorbance per minute is defined as one unit.
By the following method, the β-NMN compound of the present invention (Production Example 1) and β-NMN products 1 to 3 were measured for the enzymatic reactivity with R-LDHS (SEQ ID NO: 1). Note that, the measurement results are average values in the measurement performed three times.
(The purity of the β-NMN in a measurement sample was assumed to be 100%. Also, the β-NMN was dissolved in an 80 mM sodium carbonate solution in advance.)
The enzyme solution was prepared so that the R-LDH5 was to be 245 U/mL as a final concentration in a reaction liquid.
An enzyme activity was measured using a 7180 type Hitachi automatic analyzer (obtained from Hitachi High-Tech Corporation). Measurement parameters are as follows.
Analysis method: Rate A Measurement wavelength (sub/main): 405 nm/340 nm Reaction duration: 10 minutes Photometric points: 20 to 24 Sample liquid (enzyme solution): 18 μL
18 μL of the enzyme solution and 120 μL of the R1 reagent were mixed. The resulting mixture was incubated at 37° C. for 4.5 minutes (photometric points 1 to 16), followed by addition of 87 μL of the R2 reagent, to initiate reaction (photometric point 17). Measurements were taken for five minutes after initiation of the reaction. From the absorbance of the measurement sample at minute one to minute two after the initiation (photometric points 20 to 24), the absorbance of water (blank) at the same photometric points was subtracted, to calculate a value of change in absorbance per minute (ΔmAbs/min). Regarding the activity unit, 0.1 mAbs as the value of change in absorbance per minute was defined as one unit. […]

HEK293 cells [3] = experiment: Intracellular NAD content in culture cells (Test Example 5); type: cell-based; conditions: nonadherent HEK293 cells; 0.1 mM β-NMN; shake-cultured seven days without exchange of the medium; FIGS. 6A, 6B
Procedure: In order to evaluate biological activities of the β-NMN compounds of Production Example 1 and the β-NMN product 3, culture cells were cultured in a medium containing the β-NMN compound, to measure change in intracellular NAD.
The culture cells used were HEK293 cells that had been treated to be nonadherent. The medium used was FreeStyle™ 293 Expression Medium (obtained from Thermo Fisher Scientific).
First, the HEK293 cells, which had been treated to be nonadherent, were disseminated in the medium so as to have a concentration of 1×10^6 cells/mL. The resulting medium was dispensed into six 125 mL-flasks by 30 mL each. The flasks were supplemented with the β-NMN compounds of Production Example 1 and the β-NMN product 3 so as to have a final concentration of 0 or 0.1 mM. Without exchange of the medium, the cells were shake-cultured for seven days in a CO2 incubator at 37° C.
After shake-culturing for seven days, the cells and the culture supernatant were recovered for various analyses. […] Specifically, the recovered cells were weighed and were extracted with Extraction buffer attached to a kit, and the resulting extract was measured for NAD. The intracellular NAD content was calculated based on a calibration curve obtained by measuring NAD solutions of various concentrations.

[4] = biological target: human lactate dehydrogenase (LDH) 1 (SEQ ID NO: 2) (Homo sapiens, UniProt P07195); experiment: Dependency of LDH activity value on β-NMN compound concentration, human LDH1 (Test Example 4); type: biochemical; conditions: human LDH1 45 U/mL; 0-200 mM β-NMN in R1 reagent; compared with Production Example 1; FIGS. 4D to 4F
Procedure: (§1) In order to confirm dependency of a LDH activity value on the β-NMN compound concentration, the β-NMN compound produced in Production Example 1 and β-NMN products 1 to 3 the same as those used in Test Example 1 were used for measurement of an enzyme activity of LDH at varied concentrations of the β-NMN in the R1 reagent.
(§2) The enzyme activity of LDH was measured in the same manner as in [Evaluation of enzymatic reactivity] of Test Example 1 except that the following R1 reagent and enzyme solution were used, to calculate a value of change in absorbance per minute (ΔmAbs/min). Regarding as 100% the activity value of LDH when the β-NMN compound of Production Example 1 was used at 200 mM, the relative activity values (%) in each NMN at each concentration are presented in FIGS. 4A to 4F (FIGS. 4A to 4C: R-LDH5 and FIGS. 4D and 4F: human LDH1). Note that, the measurement results are average values in the measurement performed three times.
(§3) (The purity of the β-NMN in a measurement sample was assumed to be 100%. Also, the β-NMN was dissolved in a 100 mM sodium carbonate solution in advance.)
An enzyme solution was prepared so that the LDH was to be 45 U/mL as a final concentration in a reaction liquid.

[5] = biological target: R-LDH5 (lactate dehydrogenase, SEQ ID NO: 1) (Oryctolagus cuniculus, UniProt P13491, L277I/T249S); experiment: Dependency of LDH activity value on β-NMN compound concentration, R-LDH5 (Test Example 4); type: biochemical; conditions: R-LDH5 245 U/mL; for relative activity value of LDH, dependency on β-NMN concentration: 0-200 mM β-NMN in R1 reagent, compared with Production Example 1, FIGS. 4B, 4C
Procedure: as §1, §2, §3
An enzyme solution was prepared so that the LDH was to be 245 U/mL as a final concentration in a reaction liquid.

Chain of human lactate dehydrogenase (LDH) 1 (SEQ ID NO: 2) (P07195 whole entry): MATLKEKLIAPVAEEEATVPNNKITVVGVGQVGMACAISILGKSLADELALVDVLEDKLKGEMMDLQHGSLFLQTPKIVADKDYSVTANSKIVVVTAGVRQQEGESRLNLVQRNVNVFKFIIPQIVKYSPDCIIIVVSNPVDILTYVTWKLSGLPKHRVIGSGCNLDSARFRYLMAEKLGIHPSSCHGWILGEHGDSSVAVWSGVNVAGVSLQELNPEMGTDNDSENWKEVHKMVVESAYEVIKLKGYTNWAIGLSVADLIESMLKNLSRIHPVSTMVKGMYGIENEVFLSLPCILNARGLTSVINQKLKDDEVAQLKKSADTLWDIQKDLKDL

## NC(=O)c1ccc[n+]([C@@H]2O[C@H](COP(=O)([O-])O)[C@@H](O)[C@H]2O)c1 [Production Example 1, β-nicotinamide mononucleotide]
HEK293 cells [1]
  cytotoxicity rate determined based on intra- and extracellular AST activities: lower when the β-NMN compound of Production Example 1 was added than when the β-NMN compound of the β-NMN product 3 was added
[2]
  Enzymatic reactivity (unit): 39 unit
HEK293 cells [3]
  intracellular NAD content: higher when the β-NMN compound of Production Example 1 was added than when the β-NMN compound of the β-NMN product 3 was added

## NC(=O)c1ccc[n+]([C@@H]2O[C@H](COP(=O)([O-])O)[C@@H](O)[C@H]2O)c1 [Production Example 2, β-nicotinamide mononucleotide]
[2]
  Enzymatic reactivity (unit): 40 unit

## NC(=O)c1ccc[n+]([C@@H]2O[C@H](COP(=O)([O-])O)[C@@H](O)[C@H]2O)c1 [Production Example 3, β-nicotinamide mononucleotide]
[2]
  Enzymatic reactivity (unit): 38 unit

## NC(=O)c1ccc[n+]([C@@H]2O[C@H](COP(=O)([O-])O)[C@@H](O)[C@H]2O)c1 [Production Example 4, β-nicotinamide mononucleotide]
[2]
  Enzymatic reactivity (unit): 35 unit

## NC(=O)c1ccc[n+]([C@@H]2O[C@H](COP(=O)([O-])O)[C@@H](O)[C@H]2O)c1 [β-NMN product 1, β-nicotinamide mononucleotide]
[4]
  relative activity value of LDH, dependency on β-NMN concentration: larger differences in the activity value from the β-NMN compound of Production Example 1 as the β-NMN concentration increased
[5]; 200 mM β-NMN in R1 reagent, FIG. 4A
  enzymatic activity of LDH at a β-NMN concentration of 200 mM: could not be measured
[2]
  Enzymatic reactivity (unit): 23 unit

## NC(=O)c1ccc[n+]([C@@H]2O[C@H](COP(=O)([O-])O)[C@@H](O)[C@H]2O)c1 [β-NMN product 2, β-nicotinamide mononucleotide]
[4]
  relative activity value of LDH, dependency on β-NMN concentration: larger differences in the activity value from the β-NMN compound of Production Example 1 as the β-NMN concentration increased
[5]
  relative activity value of LDH, dependency on β-NMN concentration: the difference in the activity value from the β-NMN compound of Production Example 1 became larger as the β-NMN concentration increased
[2]
  Enzymatic reactivity (unit): 27 unit

## NC(=O)c1ccc[n+]([C@@H]2O[C@H](COP(=O)([O-])O)[C@@H](O)[C@H]2O)c1 [β-NMN product 3, β-nicotinamide mononucleotide]
[4]
  relative activity value of LDH, dependency on β-NMN concentration: larger differences in the activity value from the β-NMN compound of Production Example 1 as the β-NMN concentration increased
[5]
  relative activity value of LDH, dependency on β-NMN concentration: the difference in the activity value from the β-NMN compound of Production Example 1 became larger as the β-NMN concentration increased
[2]
  Enzymatic reactivity (unit): 26 unit
